Article PMC3820480 (Nature, 2013)

Columns and labels:
GCGR = settings: antagonist to glucagon; no reference given; cited from earlier work
[1] = system: GCGR mutants of Trp295 and Asn298; experiment: Whole-cell glucagon binding assay, ECL2 mutants Trp295 and Asn298; parameters: species or system human; settings: CHO-K1 cells, 40 pM 125I-glucagon, room temperature, 3 h

Molecule	mode of antagonism (GCGR)	effect of mutation of ECL2 residues on ligand binding [1]
CS(=O)(=O)c1cccc(NC(=O)N(Cc2ccc(C(=O)Nc3nn[nH]n3)cc2)c2ccc(C3CCCCC3)cc2)c1 [NNC0640]	competitive antagonist to glucagon	
glucagon: 29 amino acid hormonal peptide, glucagon (Supplementary Fig. 1a)		strongly affects ligand binding
